In paper PMC10178848, “Modulating fast skeletal muscle contraction protects skeletal muscle in animal models of Duchenne muscular dystrophy” (The Journal of Clinical Investigation, 2023):

System: mdx mouse EDL muscle
Assay: Phosphoprotein array analysis (Cell Signaling Phospho Antibody Array)
Description: mdx mouse EDL muscle was prepared for ex vivo analysis as described (n = 5). Muscles were incubated for 1 hour with DMSO or EDG-5506 (5 μM) and then flash frozen in liquid nitrogen. Tissue preparation and analysis were performed as recommended by the manufacturer (Cell Signaling Phospho Antibody Array, Full Moon Biosystems).

O=c1ccc(-c2cnc(OCC(F)(F)F)nc2)nn1Cc1cncc(F)c1 [EDG-5506]
Data Normalized to Median Signal: CDK1/CDC2 (Phospho-Tyr15) (4000031744 (T)): 0.89
Data Normalized to Median Signal: CREB (Phospho-Ser133) (4000031744 (T)): 0.81
Data Normalized to Median Signal: CaMK2-beta/gamma/delta (Phospho-Thr287) (4000031744 (T)): 1.20
Data Normalized to Median Signal: CaMK2A (Phospho-Thr286) (4000031744 (T)): 0.85
Data Normalized to Median Signal: Caspase 8 (Phospho-Ser347) (4000031744 (T)): 1.06
Data Normalized to Median Signal: Caspase 9 (Phospho-Ser196) (4000031744 (T)): 2.98
Data Normalized to Median Signal: Catenin beta (Phospho-Thr41/Ser45) (4000031744 (T)): 0.90
Data Normalized to Median Signal: Chk2 (Phospho-Thr68) (4000031744 (T)): 0.66
Data Normalized to Median Signal: Cyclin D1 (Phospho-Thr286) (4000031744 (T)): 2.47
Data Normalized to Median Signal: Cyclin E1 (Phospho-Thr77) (4000031744 (T)): 1.57
Data Normalized to Median Signal: DARPP-32 (Phospho-Thr34) (4000031744 (T)): 0.93
Data Normalized to Median Signal: EEF2 (Phospho-Thr56) (4000031744 (T)): 1.33
Data Normalized to Median Signal: FADD (Phospho-Ser194) (4000031744 (T)): 2.10
Data Normalized to Median Signal: FAK (Phospho-Ser910) (4000031744 (T)): 1.62
Data Normalized to Median Signal: FGFR1 (Phospho-Tyr654) (4000031744 (T)): 2.43
Data Normalized to Median Signal: GRK2 (Phospho-Ser29) (4000031744 (T)): 1.51
Data Normalized to Median Signal: GSK3 alpha/beta (Phospho-Tyr216/279) (4000031744 (T)): 1.02
Data Normalized to Median Signal: Gab2 (Phospho-Tyr643) (4000031744 (T)): 4.36
Data Normalized to Median Signal: HDAC1 (Phospho-Ser421) (4000031744 (T)): 1.53
Data Normalized to Median Signal: HDAC2 (Phospho-Ser394) (4000031744 (T)): 1.45
Data Normalized to Median Signal: HSP90B (Phospho-Ser226) (4000031744 (T)): 2.09
Data Normalized to Median Signal: IKK-beta (Phospho-Tyr188) (4000031744 (T)): 1.11
Data Normalized to Median Signal: IKK-beta (Phospho-Tyr199) (4000031744 (T)): 1.14
Data Normalized to Median Signal: IKK-gamma (Phospho-Ser31) (4000031744 (T)): 0.98
Data Normalized to Median Signal: IL-4R/CD124 (Phospho-Tyr497) (4000031744 (T)): 1.35
Data Normalized to Median Signal: IL-10R-alpha (Phospho-Tyr496) (4000031744 (T)): 1.26
Data Normalized to Median Signal: IkB-alpha (Phospho-Ser32/36) (4000031744 (T)): 8.76
Data Normalized to Median Signal: Integrin beta-3 (Phospho-Tyr773) (4000031744 (T)): 0.89
Data Normalized to Median Signal: JunB (Phospho-Ser259) (4000031744 (T)): 0.90
Data Normalized to Median Signal: LYN (Phospho-Tyr507) (4000031744 (T)): 1.16
Data Normalized to Median Signal: Lamin A/C (Phospho-Ser392) (4000031744 (T)): 0.81
Data Normalized to Median Signal: MEK1 (Phospho-Ser217) (4000031744 (T)): 0.66
Data Normalized to Median Signal: NFkB-p65 (Phospho-Ser311) (4000031744 (T)): 0.96
Data Normalized to Median Signal: NFkB-p65 (Phospho-Ser529) (4000031744 (T)): 54.58
Data Normalized to Median Signal: NFkB-p100/p52 (Phospho-Ser865) (4000031744 (T)): 1.13
Data Normalized to Median Signal: P38 MAPK (Phospho-Thr180/Tyr182) (4000031744 (T)): 1.99
Data Normalized to Median Signal: P70S6K (Phospho-Ser424) (4000031744 (T)): 0.97
Data Normalized to Median Signal: P90RSK (Phospho-Thr359/Ser363) (4000031744 (T)): 1.39
Data Normalized to Median Signal: PDK1 (Phospho-Ser241) (4000031744 (T)): 1.70
Data Normalized to Median Signal: PLCG1 (Phospho-Tyr783) (4000031744 (T)): 7.48
Data Normalized to Median Signal: PLK1 (Phospho-Thr210) (4000031744 (T)): 0.61
Data Normalized to Median Signal: PP2A-alpha (Phospho-Tyr307) (4000031744 (T)): 0.97
Data Normalized to Median Signal: PPAR-gamma (Phospho-Ser112) (4000031744 (T)): 1.23
Data Normalized to Median Signal: Rb (Phospho-Ser807) (4000031744 (T)): 0.99
Data Normalized to Median Signal: RelB (Phospho-Ser552) (4000031744 (T)): 2.68
Data Normalized to Median Signal: SAPK/JNK (Phospho-Tyr185) (4000031744 (T)): 0.87
Data Normalized to Median Signal: SHP-2 (Phospho-Tyr542) (4000031744 (T)): 1.06
Data Normalized to Median Signal: STAT3 (Phospho-Tyr705) (4000031744 (T)): 0.90
Data Normalized to Median Signal: STAT4 (Phospho-Tyr693) (4000031744 (T)): 43.74
Data Normalized to Median Signal: STAT6 (Phospho-Thr645) (4000031744 (T)): 0.94
Data Normalized to Median Signal: SYK (Phospho-Tyr348) (4000031744 (T)): 1.04
Data Normalized to Median Signal: Smad1 (Phospho-Ser187) (4000031744 (T)): 1.71
Data Normalized to Median Signal: Smad2 (Phospho-Ser467) (4000031744 (T)): 1.05
Data Normalized to Median Signal: Smad2/3 (Phospho-Thr8) (4000031744 (T)): 2.11
Data Normalized to Median Signal: Smad3 (Phospho-Ser213) (4000031744 (T)): 1.56
Data Normalized to Median Signal: Src (Phospho-Tyr418) (4000031744 (T)): 9.05
Data Normalized to Median Signal: Tau (Phospho-Ser396) (4000031744 (T)): 0.88
Data Normalized to Median Signal: VEGFR2 (Phospho-Tyr1175) (4000031744 (T)): 0.88
Data Normalized to Median Signal: Zap-70 (Phospho-Tyr319) (4000031744 (T)): 1.25
Data Normalized to Median Signal: c-Jun (Phospho-Ser73) (4000031744 (T)): 0.98
Data Normalized to Median Signal: p44/42 MAP Kinase (Phospho-Tyr204) (4000031744 (T)): 0.86
Data Normalized to Median Signal: p53 (Phospho-Ser15) (4000031744 (T)): 1.59
Fold Change between Samples T/C: 4E-BP1 (Phospho-Thr45) (T vs C): 0.89
Fold Change between Samples T/C: ACC1 (Phospho-Ser80) (T vs C): 1.12
Fold Change between Samples T/C: AMPKbeta1 (Phospho-Ser182) (T vs C): 0.97
Fold Change between Samples T/C: B-RAF (Phospho-Ser446) (T vs C): 1.05
Fold Change between Samples T/C: BAX (Phospho-Thr167) (T vs C): 0.95
Fold Change between Samples T/C: BCL-XL (Phospho-Ser62) (T vs C): 1.23
Fold Change between Samples T/C: BLNK (Phospho-Tyr96) (T vs C): 0.62
Fold Change between Samples T/C: CBL (Phospho-Tyr700) (T vs C): 0.88
Fold Change between Samples T/C: CDK1/CDC2 (Phospho-Tyr15) (T vs C): 0.83
Fold Change between Samples T/C: CREB (Phospho-Ser133) (T vs C): 0.74
Fold Change between Samples T/C: CaMK2-beta/gamma/delta (Phospho-Thr287) (T vs C): 0.92
Fold Change between Samples T/C: CaMK2A (Phospho-Thr286) (T vs C): 0.86
Fold Change between Samples T/C: Caspase 8 (Phospho-Ser347) (T vs C): 1.08
Fold Change between Samples T/C: Caspase 9 (Phospho-Ser196) (T vs C): 0.94
Fold Change between Samples T/C: Catenin beta (Phospho-Thr41/Ser45) (T vs C): 0.83
Fold Change between Samples T/C: Chk2 (Phospho-Thr68) (T vs C): 0.51
Fold Change between Samples T/C: Cyclin D1 (Phospho-Thr286) (T vs C): 1.18
Fold Change between Samples T/C: Cyclin E1 (Phospho-Thr77) (T vs C): 1.02
Fold Change between Samples T/C: DARPP-32 (Phospho-Thr34) (T vs C): 0.91
Fold Change between Samples T/C: EEF2 (Phospho-Thr56) (T vs C): 1.12
Fold Change between Samples T/C: FADD (Phospho-Ser194) (T vs C): 1.53
Fold Change between Samples T/C: FAK (Phospho-Ser910) (T vs C): 1.09
Fold Change between Samples T/C: FGFR1 (Phospho-Tyr654) (T vs C): 1.35
Fold Change between Samples T/C: GRK2 (Phospho-Ser29) (T vs C): 1.26
Fold Change between Samples T/C: GSK3 alpha/beta (Phospho-Tyr216/279) (T vs C): 0.97
Fold Change between Samples T/C: Gab2 (Phospho-Tyr643) (T vs C): 1.59
Fold Change between Samples T/C: HDAC1 (Phospho-Ser421) (T vs C): 1.25
Fold Change between Samples T/C: HDAC2 (Phospho-Ser394) (T vs C): 0.90
Fold Change between Samples T/C: HSP90B (Phospho-Ser226) (T vs C): 1.00
Fold Change between Samples T/C: IKK-beta (Phospho-Tyr188) (T vs C): 1.01
Fold Change between Samples T/C: IKK-beta (Phospho-Tyr199) (T vs C): 0.84
Fold Change between Samples T/C: IKK-gamma (Phospho-Ser31) (T vs C): 0.98
Fold Change between Samples T/C: IL-4R/CD124 (Phospho-Tyr497) (T vs C): 0.93
Fold Change between Samples T/C: IL-10R-alpha (Phospho-Tyr496) (T vs C): 0.85
Fold Change between Samples T/C: IkB-alpha (Phospho-Ser32/36) (T vs C): 1.11
Fold Change between Samples T/C: Integrin beta-3 (Phospho-Tyr773) (T vs C): 0.93
Fold Change between Samples T/C: JunB (Phospho-Ser259) (T vs C): 0.79
Fold Change between Samples T/C: LYN (Phospho-Tyr507) (T vs C): 1.06
Fold Change between Samples T/C: Lamin A/C (Phospho-Ser392) (T vs C): 0.80
Fold Change between Samples T/C: MEK1 (Phospho-Ser217) (T vs C): 0.62
Fold Change between Samples T/C: NFkB-p65 (Phospho-Ser311) (T vs C): 1.00
Fold Change between Samples T/C: NFkB-p65 (Phospho-Ser529) (T vs C): 0.82
Fold Change between Samples T/C: NFkB-p100/p52 (Phospho-Ser865) (T vs C): 0.88
Fold Change between Samples T/C: P38 MAPK (Phospho-Thr180/Tyr182) (T vs C): 0.35
Fold Change between Samples T/C: P70S6K (Phospho-Ser424) (T vs C): 1.00
Fold Change between Samples T/C: P90RSK (Phospho-Thr359/Ser363) (T vs C): 0.95
Fold Change between Samples T/C: PDK1 (Phospho-Ser241) (T vs C): 1.14
Fold Change between Samples T/C: PLCG1 (Phospho-Tyr783) (T vs C): 2.25
Fold Change between Samples T/C: PLK1 (Phospho-Thr210) (T vs C): 0.60
Fold Change between Samples T/C: PP2A-alpha (Phospho-Tyr307) (T vs C): 0.93
Fold Change between Samples T/C: PPAR-gamma (Phospho-Ser112) (T vs C): 1.26
Fold Change between Samples T/C: Rb (Phospho-Ser807) (T vs C): 0.91
Fold Change between Samples T/C: RelB (Phospho-Ser552) (T vs C): 0.76
Fold Change between Samples T/C: SAPK/JNK (Phospho-Tyr185) (T vs C): 0.84
Fold Change between Samples T/C: SHP-2 (Phospho-Tyr542) (T vs C): 0.91
Fold Change between Samples T/C: STAT3 (Phospho-Tyr705) (T vs C): 0.92
Fold Change between Samples T/C: STAT4 (Phospho-Tyr693) (T vs C): 1.04
Fold Change between Samples T/C: STAT6 (Phospho-Thr645) (T vs C): 0.89
Fold Change between Samples T/C: SYK (Phospho-Tyr348) (T vs C): 0.91
Fold Change between Samples T/C: Smad1 (Phospho-Ser187) (T vs C): 1.60
Fold Change between Samples T/C: Smad2 (Phospho-Ser467) (T vs C): 1.00
Fold Change between Samples T/C: Smad2/3 (Phospho-Thr8) (T vs C): 1.25
Fold Change between Samples T/C: Smad3 (Phospho-Ser213) (T vs C): 1.26
Fold Change between Samples T/C: Src (Phospho-Tyr418) (T vs C): 0.77
